# According to patent EP4273147A1, “SUBSTITUTED SPIROLACTAMS, SALTS THEREOF AND THEIR USE AS HERBICIDALLY ACTIVE SUBSTANCES” (Bayer Aktiengesellschaft, priority 2022, dated 2023):
# Legend:
# ALOMY [1] = test: Herbicidal pre-emergence action, section C (Table C2); type: in vivo, Alopecurus myosuroides; settings: application rate 320 g/ha; visual grading after ca. 3 weeks
# ALOMY [2] = test: Herbicidal post-emergence action (Table B2); type: in vivo, Alopecurus myosuroides; settings: application rate 1280 g/ha; rated visually after about 3 weeks
# Method in brief: (§1)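 Each pot held sandy loam sown with a single mono- or dicot weed species, grown under controlled greenhouse conditions. Test plants were sprayed at the one-leaf stage, and after about 3 weeks of further growth the percentage activity relative to untreated plants was rated visually.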
# KCHSC = test: Herbicidal pre-emergence action (Table A10); type: in vivo, Kochia scoparia; settings: application rate 1280 g/ha; visual grading after ca. 3 weeks
# Method in brief: (§2)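 Weed seeds are sown into sandy loam in pots and covered with soil, with two species per pot, one monocot and one dicot.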
# STEME [3] = test: Herbicidal pre-emergence action (Table A6); type: in vivo, Stellaria media; settings: application rate 320 g/ha; visual grading after ca. 3 weeks
# Method in brief: as §2
# POAAN [4] = test: Herbicidal pre-emergence action (Table A7); type: in vivo, Poa annua; settings: application rate 320 g/ha; visual grading after ca. 3 weeks
# Method in brief: as §2
# POAAN [5] = test: Herbicidal post-emergence action (Table B7); type: in vivo, Poa annua; settings: application rate 320 g/ha
# Method in brief: as §1
# VERPE [6] = test: Herbicidal post-emergence action, section E (Table E9); type: in vivo, Veronica persica; settings: application rate 320 g/ha; assessed visually after ca. 3 weeks
# Description: (§3) 2 to 3 weeks after sowing, the test plants were sprayed in the single-leaf stage.
# VERPE [7] = test: Herbicidal pre-emergence action (Table A11); type: in vivo, Veronica persica; settings: application rate 320 g/ha; visual grading after ca. 3 weeks
# Method in brief: as §2
# ECHCG [8] = test: Herbicidal post-emergence action (Table B3); type: in vivo, Echinochloa crus-galli; settings: application rate 320 g/ha; rated visually after about 3 weeks
# Method in brief: as §1
# MATIN [9] = test: Herbicidal post-emergence action (Table B6); type: in vivo, Matricaria inodora; settings: application rate 320 g/ha; rated visually after about 3 weeks
# Method in brief: as §1
# VERPE [10] = test: Herbicidal post-emergence action (Table B10); type: in vivo, Veronica persica; settings: application rate 320 g/ha
# Method in brief: as §1
# ALOMY [11] = test: Herbicidal post-emergence action, section E (Table E2); type: in vivo, Alopecurus myosuroides; settings: application rate 320 g/ha; assessed visually after ca. 3 weeks
# Description: as §3
# TRZAS = test: Post-emergence effects on crop plants (Table F2); type: in vivo, Triticum aestivum; settings: application rate 80 g/ha, crop plant TRZAS
# Description: as §3
# ABUTH [12] = test: Herbicidal post-emergence action (Table B1); type: in vivo, Abutilon theophrasti; settings: application rate 1280 g/ha; treated at one-leaf stage; rated visually after about 3 weeks vs untreated controls (100% = plants have died, 0% = like control plants)
# Method in brief: as §1
# LOLRI [13] = test: Herbicidal pre-emergence action, section C (Table C7); type: in vivo, Lolium rigidum; settings: application rate 320 g/ha; visual grading after ca. 3 weeks
# ORYZA [14] = test: Post-emergence effects on crop plants (Table F3); type: in vivo, Oryza sativa; settings: application rate 80 g/ha, crop plant ORYZA
# Description: as §3
# ORYZA [15] = test: Pre-emergence effects on crop plants (Table D3); settings: crop plant; application rate 80 g/ha; visual grading after ca. 3 weeks
# ALOMY [16] = test: Herbicidal pre-emergence action (Table A9); type: in vivo, Alopecurus myosuroides; settings: application rate 320 g/ha; visual grading after ca. 3 weeks
# Method in brief: as §2
# ABUTH [17] = test: Herbicidal pre-emergence action (Table A1); type: in vivo, Abutilon theophrasti; settings: application rate 1280 g/ha; visual grading after ca. 3 weeks vs untreated controls (100% = plants have died off, 0% = as control plants)
# Method in brief: as §2
# ECHCG [18] = test: Herbicidal pre-emergence action, section C (Table C6); type: in vivo, Echinochloa crus-galli; settings: application rate 80 g/ha; visual grading after ca. 3 weeks
# GLXMA [19] = test: Pre-emergence effects on crop plants (Table D4); type: in vivo, Glycine max; settings: crop plant; application rate 80 g/ha; visual grading after ca. 3 weeks
# SETVI [20] = test: Herbicidal pre-emergence action, section C (Table C10); type: in vivo, Setaria viridis; settings: application rate 80 g/ha; visual grading after ca. 3 weeks
# Description: Seeds of mono- and dicotyledonous weed plants and crop plants were sown, in plastic or organic planting pots, in sandy loam and covered with soil. The compounds according to the invention, formulated in the form of wettable powders (WP) or as emulsifiable concentrates (EC), were applied to the surface of the covering soil as aqueous suspension or emulsion, with the addition of 0.5% of an additive, at an application rate of 600 1 of water/ha (converted). Following treatment, the pots were placed in a greenhouse and kept under optimum growth conditions for the test plants.
# ECHCG [21] = test: Herbicidal post-emergence action, section E (Table E5); type: in vivo, Echinochloa crus-galli; settings: application rate 320 g/ha; assessed visually after ca. 3 weeks
# Description: as §3
# ZEAMX [22] = test: Post-emergence effects on crop plants (Table F1); type: in vivo, Zea mays; settings: application rate 320 g/ha, crop plant ZEAMX
# Description: as §3
# ZEAMX [23] = test: Pre-emergence effects on crop plants (Table D1); type: in vivo, Zea mays; settings: crop plant; application rate 80 g/ha; visual grading after ca. 3 weeks
# SETVI [24] = test: Herbicidal post-emergence action, section E (Table E8); type: in vivo, Setaria viridis; settings: application rate 320 g/ha; assessed visually after ca. 3 weeks
# Description: as §3
# LOLRI [25] = test: Herbicidal post-emergence action, section E (Table E6); type: in vivo, Lolium rigidum; settings: application rate 320 g/ha; assessed visually after ca. 3 weeks
# Description: as §3
# SETVI [26] = test: Herbicidal post-emergence action (Table B8); type: in vivo, Setaria viridis; settings: application rate 1280 g/ha
# Method in brief: as §1
# BRSNW [27] = test: Pre-emergence effects on crop plants (Table D5); type: in vivo, Brassica napus; settings: crop plant; application rate 80 g/ha; visual grading after ca. 3 weeks
# Description: Seeds of mono- and dicotyledonous weed plants and crop plants were sown, in plastic or organic planting pots, in sandy loam and covered with soil. The compounds according to the invention, formulated in the form of wettable powders (WP) or as emulsifiable concentrates (EC), were applied to the surface of the covering soil as aqueous suspension or emulsion, with the addition of 0.5% of an additive, at an application rate of 600 1 of water/ha (converted).
# Following treatment, the pots were placed in a greenhouse and kept under optimum growth conditions for the test plants.
# MATIN [28] = test: Herbicidal pre-emergence action (Table A4); type: in vivo, Matricaria inodora; settings: application rate 320 g/ha; visual grading after ca. 3 weeks
# Method in brief: as §2
# SETVI [29] = test: Herbicidal pre-emergence action (Table A5); type: in vivo, Setaria viridis; settings: application rate 320 g/ha; visual grading after ca. 3 weeks
# Method in brief: as §2
# VIOTR = test: Herbicidal pre-emergence action, section C (Table C12); type: in vivo, Viola tricolor; settings: application rate 320 g/ha; visual grading after ca. 3 weeks
# ECHCG [30] = test: Herbicidal pre-emergence action (Table A2); type: in vivo, Echinochloa crus-galli; settings: application rate 320 g/ha; visual grading after ca. 3 weeks
# Method in brief: as §2
# BRSNW [31] = test: Post-emergence effects on crop plants (Table F5); type: in vivo, Brassica napus; settings: application rate 80 g/ha, crop plant BRSNW
# Description: as §3
# GLXMA [32] = test: Post-emergence effects on crop plants (Table F4); type: in vivo, Glycine max; settings: application rate 80 g/ha, crop plant GLXMA
# Description: as §3
# LOLRI [33] = test: Herbicidal pre-emergence action (Table A3); type: in vivo, Lolium rigidum; settings: application rate 320 g/ha; visual grading after ca. 3 weeks
# Method in brief: as §2
# MATIN [34] = test: Herbicidal pre-emergence action, section C (Table C8); type: in vivo, Matricaria inodora; settings: application rate 320 g/ha; visual grading after ca. 3 weeks
# STEME [35] = test: Herbicidal post-emergence action (Table B9); type: in vivo, Stellaria media; settings: application rate 1280 g/ha
# Method in brief: as §1
smiles,measurement,setting,value
O=C1N(Cc2ccccc2F)CCCC12CCCN(Cc1cccc(F)c1F)C2=O (racemic) [I-003],pre-emergence activity against ALOMY,ALOMY [1],90%
same,post-emergence activity against ALOMY,ALOMY [2],90%
same,pre-emergence activity against KCHSC,KCHSC,90%
same,pre-emergence activity against STEME,STEME [3],90%
same,pre-emergence activity against POAAN,POAAN [4],100%
same,post-emergence activity against POAAN,POAAN [5],100%
same,post-emergence activity against VERPE,VERPE [6],80%
same,pre-emergence activity against VERPE,VERPE [7],90%
same,post-emergence activity against ECHCG,ECHCG [8],90%
same,post-emergence activity against MATIN,MATIN [9],90%
same,post-emergence activity against VERPE,VERPE [10],90%
same,post-emergence activity against ALOMY,ALOMY [11],90%
same,post-emergence activity against TRZAS,TRZAS,0%
same,post-emergence activity against ABUTH,ABUTH [12],90%
same,pre-emergence activity against LOLRI,LOLRI [13],90%
same,post-emergence activity against ORYZA,ORYZA [14],20%
same,pre-emergence activity against ORYZA,ORYZA [15],20%
same,pre-emergence activity against ALOMY,ALOMY [16],90%
same,pre-emergence activity against ABUTH,ABUTH [17],90%
same,pre-emergence activity against ECHCG,ECHCG [18],100%
same,pre-emergence activity against GLXMA,GLXMA [19],10%
same,pre-emergence activity against SETVI,SETVI [20],100%
same,post-emergence activity against ECHCG,ECHCG [21],80%
same,post-emergence activity against ZEAMX,ZEAMX [22],20%
same,pre-emergence activity against ZEAMX,ZEAMX [23],10%
same,post-emergence activity against SETVI,SETVI [24],80%
same,post-emergence activity against LOLRI,LOLRI [25],80%
same,post-emergence activity against SETVI,SETVI [26],90%
same,pre-emergence activity against BRSNW,BRSNW [27],10%
same,pre-emergence activity against MATIN,MATIN [28],90%
same,pre-emergence activity against SETVI,SETVI [29],100%
same,pre-emergence activity against VIOTR,VIOTR,90%
same,pre-emergence activity against ECHCG,ECHCG [30],100%
same,post-emergence activity against BRSNW,BRSNW [31],20%
same,post-emergence activity against GLXMA,GLXMA [32],20%
same,pre-emergence activity against LOLRI,LOLRI [33],100%
same,pre-emergence activity against MATIN,MATIN [34],90%
same,post-emergence activity against STEME,STEME [35],100%
